The values below come from patent US20040157772A1, “Use of a gatran for the manufacture of a medicament of the treatment of pulmonary fibrosis” (priority 2001, published 2004).

Data set [1] can be described thus: Concentration of inogatran in plasma on day 6. It is filed as in vivo. The note with it: Sprague-Dawley, rat, iv, rats, constant i.v. infusion 5 μmol/kg/h from Alzet pumps, day 6 after implantation, approximately. On the procedure: (§1) Group 4—12 rats—received bleomycin induction as above, plus a constant i.v. infusion of inogatran (5 μmol/kg/h) loaded in Alzet® 2ML2 pumps at a concentration of 200 μmol/mL (88 mg/mL) in 0.9% NaCl (only 8 animals were ultimately used, the other 4 were used for different purposes).
Plasma and bronchiolar lavage fluid (BAL) were collected from four rats in groups 3 and 4, and from two rats in group 1, six days after induction, for quantification of plasma concentration of compound and thrombin activity in BAL.
Concentration of inogatran in plasma on day 6.

Data set [2] concerns bleomycin-induced lung fibrosis. The experiment in a line: Bleomycin-induced lung fibrosis model in rats, inogatran by constant i.v. infusion. It is filed as in vivo, Sprague Dawley rats. On the procedure: Forty male Sprague Dawley rats weighing 200 g were kept in cages (2 rats/cage) covered with filter tops to prevent spreading of carcinogenic metabolites of bleomycin. The rats had free access to food and water.
The rats were split into four groups:
Group 1—8 rats—received 0.9% NaCl (1 mL/kg) as a control (only 6 animals were ultimately used, the other 2 were used for different purposes).
Group 2—8 rats—received induction by way of an i.t. 2.5 mg/kg (1 mL/kg) bleomycin instillation (a 15 IE injection solution (Lundbeck)).
Group 3—12 rats—received bleomycin induction as above, plus a constant i.v. infusion of 0.9% NaCl solution (5.0 μL/h) (only 8 animals were ultimately used, the other 4 were used for different purposes).
as §1
The rats were anaesthetised by way of an i.p. injection (2 mL/kg) of Ketalar™ (50 mg/mL ketamin; Parke-Davis)/Rompun.vet™ (20 mg/mL xylazin; Bayer) (1.75 mL/0.35 mL). A pre-filled minipump connected to a PE60 catheter was inserted into the jugularis vein. A s.c. pocket was created on the back of the animal. The pump was led into this pocket. The incision on the neck was closed with wound clips.
The pre-filled pump with catheter was incubated in 37° C. 0.9% NaCl overnight before implantation to enable immediate pumping after surgery. This was to avoid clotting in the catheter.
After 14 days, all rats received an overdose of pentobarbital (i.p.). The rats were weighed and the lung was dissected and weighed. One lobe was placed in Histofix™ (buffered 5% formaldehyde solution) for histological examination. […]
The following parameters were measured: […]
Total collagen (quantification of hydroxyproline according to the procedure described in Stegemann-Stadler et al, Determinations of Hydroxyproline, Clin. Chim. Acta (1967) 18, 267-273).

`N=C(N)NCCCNC(=O)[C@@H]1CCCCN1C(=O)[C@@H](CC1CCCCC1)NCC(=O)O` [inogatran, HOOC—CH2-(R)Cha-Pic-Nag-H]: the concentration at 6 day in data set [1] lay in the range of 2 to 7 µM. In addition, the “hydroxyproline content in the lungs (total collagen)” value in data set [2] (bleomycin i.t. 2.5 mg/kg, constant i.v. infusion 5 μmol/kg/h, day 14, vehicle control 2.34±0.14, P=0.0008) came out at 1.37±0.10 μg/mg tissue. For the same molecule, the “inhibition of collagen deposition” value in data set [2] (bleomycin-induced rats, constant i.v. infusion, day 14) is on record as “almost complete inhibition”. Also, the “effect on total lung weight (wet-weight)” value in data set [2] (bleomycin-induced rats, inogatran 4-5 μmol/kg/hr) is given as “no effect”.
